pIC50: −log10 of the molar value.
Biological target: T1, NHE-1 (Homo sapiens, UniProt P19634)
T1 construct: endogenous in cells; host or cells: HT-29
Experiment: Evaluation of NHE-1 Inhibition (pHi) in HT-29 cells
Format: cell-based
Conditions: BCECF dye, 50% inhibition of the intracellular pH recovery, read-out: NHE1 HT29 pHi IC50
Experimental: Evaluation of NHE-1 Inhibition (pHi)
HT-29 cells resuspended in DMEM supplemented with 10% FBS, 1% NEAA, and 1% Penn-Strep are seeded at 10,000 cells/well in collagen coated 384 well plates which are then incubated for 24 hours at 37° C. The next day, the medium is removed and the cells are dye (Invitrogen's BCECF) loaded for 30 minutes at 37° C., washed three times with an acid loading buffer (10 mM NH4Cl, 1.8 mM CaCl2, 90 mM Choline Cl, 5 mM Glucose, 15 mM Hepes, 5 mM KCl, 1 mM MgCl2, adjusted to pH 7.5 with KOH) and further incubated at RT for 30 minutes.
At the end of the incubation, the buffer is removed and 5 uL of fresh acid loading buffer is added to each well to prevent the dessication of the cells. The plate is placed in a Hamamatsu FDSS6000 instrument and candidate compounds are added to the cells.

T1 sequence (P19634 whole entry): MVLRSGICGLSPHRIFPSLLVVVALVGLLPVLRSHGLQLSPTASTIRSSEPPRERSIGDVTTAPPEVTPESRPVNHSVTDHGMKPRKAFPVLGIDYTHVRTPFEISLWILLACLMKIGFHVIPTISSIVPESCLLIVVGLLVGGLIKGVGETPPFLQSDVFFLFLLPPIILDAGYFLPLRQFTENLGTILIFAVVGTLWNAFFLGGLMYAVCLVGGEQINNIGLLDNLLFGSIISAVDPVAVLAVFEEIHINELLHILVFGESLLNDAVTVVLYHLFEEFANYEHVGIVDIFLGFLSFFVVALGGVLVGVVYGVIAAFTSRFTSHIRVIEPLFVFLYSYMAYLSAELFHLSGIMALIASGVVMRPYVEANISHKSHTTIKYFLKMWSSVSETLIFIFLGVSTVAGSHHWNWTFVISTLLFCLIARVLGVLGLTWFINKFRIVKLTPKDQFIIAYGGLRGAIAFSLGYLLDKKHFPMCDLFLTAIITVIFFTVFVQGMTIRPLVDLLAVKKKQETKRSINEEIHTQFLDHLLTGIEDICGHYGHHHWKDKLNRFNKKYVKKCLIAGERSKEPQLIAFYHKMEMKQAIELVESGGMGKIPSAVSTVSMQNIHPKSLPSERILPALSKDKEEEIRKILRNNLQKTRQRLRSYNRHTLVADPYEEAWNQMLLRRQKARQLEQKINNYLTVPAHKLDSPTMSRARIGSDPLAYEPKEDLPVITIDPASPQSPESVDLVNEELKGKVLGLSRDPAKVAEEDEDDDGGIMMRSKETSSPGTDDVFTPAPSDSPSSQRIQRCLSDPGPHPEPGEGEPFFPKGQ

`N=C(N)NC(=O)c1ccc(C2CCN(C(=O)Cc3ccc(F)cc3)CC2)c(C(F)(F)F)c1` [N-(4-{1-[2-(4-Fluoro-phenyl)-acetyl]-piperidin-4-yl}-3-trifluoromethyl-benzoyl)-guanidine] and `COCc1ccc(C(=O)N2CCC(c3ccc(C(=O)NC(=N)N)cc3C(F)(F)F)CC2)cc1` [N-{4-[1-(4-Methoxymethyl-benzoyl)-piperidin-4-yl]-3-trifluoromethyl-benzoyl}-guanidine] are within 0.2 log units of each other in pIC50: 6.87 for the first, 6.91 for the second.

First: Cn1cnc(C[C@@H](N)C(=O)N2CCC(c3ccc(C(=O)NC(=N)N)cc3C(F)(F)F)CC2)c1 [(R)-N-(4-{1-[-2--Amino-3-(1-methyl-1H-imidazol-4-yl)-propionyl]-piperidin-4-yl}-3-trifluoromethyl-benzoyl)-guanidine]
Second: CC(N)C(=O)N1CCC(c2ccc(C(=O)NC(=N)N)cc2C(F)(F)F)CC1 (stereo not shown) [N-{4-[1-(2-Amino-propionyl)-piperidin-4-yl]-3-trifluoromethyl-benzoyl}-guanidine]
The pIC50 of the first is 0.93 log units lower: 7.37 for the first, 8.30 for the second.

Compared with `Cc1cc(C2CCN(C(=O)c3cc4ccccc4[nH]3)CC2)c(C(F)(F)F)cc1C(=O)NC(=N)N` [N-{4-[1-(1H-Indole-2-carbonyl)-piperidin-4-yl]-2-methyl-5-trifluoromethyl-benzoyl}-guanidine], `Cc1cc(C2CCN(C(=O)c3ccc4[nH]ccc4c3)CC2)c(C(F)(F)F)cc1C(=O)NC(=N)N` [N-{4-[1-(1H-Indole-5-carbonyl)-piperidin-4-yl]-2-methyl-5-trifluoromethyl-benzoyl}-guanidine] is 0.79 log units higher in pIC50: 6.54 for the first, 7.33 for the second. The second is the more potent here.

First: Cc1cc(C2CCN(C(=O)c3ncco3)CC2)c(C(F)(F)F)cc1C(=O)NC(=N)N [N-{2-Methyl-4-[1-(oxazole-2-carbonyl)-piperidin-4-yl]-5-trifluoromethyl-benzoyl}-guanidine]
Second: Cc1cc(C2CCN(C(=O)c3ncc[nH]3)CC2)c(C(F)(F)F)cc1C(=O)NC(=N)N [N-{4-[1-(1H-Imidazole-2-carbonyl)-piperidin-4-yl]-2-methyl-5-trifluoromethyl-benzoyl}-guanidine]
The pIC50 of the first is 0.48 log units lower: 7.92 for the first, 8.40 for the second. The second is the more potent here.

Compared with `N=C(N)NC(=O)c1ccc(C2CCN(C(=O)c3ccc(N4CCCC4)cc3)CC2)c(C(F)(F)F)c1` [N-{4-[1-(4-Pyrrolidin-1-yl-benzoyl)-piperidin-4-yl]-3-trifluoromethyl-benzoyl}-guanidine], `N=C(N)NC(=O)c1ccc(C2CCN(C(=O)c3ccc(-n4ccnc4)cc3)CC2)c(C(F)(F)F)c1` [N-{4-[1-(4-Imidazol-1-yl-benzoyl)-piperidin-4-yl]-3-trifluoromethyl-benzoyl}-guanidine] is 0.55 log units higher in pIC50: 6.60 for the first, 7.15 for the second. The second is the more potent here.

Compared with `N=C(N)NC(=O)c1ccc(C2CCN(C(=O)c3cccc(Br)c3)CC2)c(C(F)(F)F)c1` [N-{4-[1-(3-Bromo-benzoyl)-piperidin-4-yl]-3-trifluoromethyl-benzoyl}-guanidine], `N#Cc1cccc(C(=O)N2CCC(c3ccc(C(=O)NC(=N)N)cc3C(F)(F)F)CC2)c1` [N-{4-[1-(3-Cyano-benzoyl)-piperidin-4-yl]-3-trifluoromethyl-benzoyl}-guanidine] is 0.45 log units higher in pIC50: 6.74 for the first, 7.19 for the second.

Compared with `N=C(N)NC(=O)c1ccc(C2CCN(C(=O)c3ccncn3)CC2)c(C(F)(F)F)c1` [N-{4-[1-(Pyrimidine-4-carbonyl)-piperidin-4-yl]-3-trifluoromethyl-benzoyl}-guanidine], `N=C(N)NC(=O)c1ccc(C2CCN(C(=O)c3ccco3)CC2)c(C(F)(F)F)c1` [N-{4-[1-(Furan-2-carbonyl)-piperidin-4-yl]-3-trifluoromethyl-benzoyl}-guanidine] is 0.46 log units lower in pIC50: 7.72 for the first, 7.26 for the second. The first is the more potent here.

First: COc1cccc(-c2ccc(C(=O)N3CCC(c4ccc(C(=O)NC(=N)N)cc4C(F)(F)F)CC3)cn2)c1 [N-(4-{1-[6-(3-Methoxy-phenyl)-pyridine-3-carbonyl]-piperidin-4-yl}-3-trifluoromethyl-benzoyl)-guanidine]
Second: N=C(N)NC(=O)c1ccc(C2CCN(C(=O)c3cccc(-c4ccccn4)c3)CC2)c(C(F)(F)F)c1 [N-{4-[1-(3-Pyridin-2-yl-benzoyl)-piperidin-4-yl]-3-trifluoromethyl-benzoyl}-guanidine]
The pIC50 of the first is 0.23 log units lower: 6.60 for the first, 6.83 for the second.

`N=C(N)NC(=O)c1ccc(C2CCN(C(=O)c3ccc4ncccc4c3)CC2)c(C(F)(F)F)c1` [N-{4-[1-(Quinoline-6-carbonyl)-piperidin-4-yl]-3-trifluoromethyl-benzoyl}-guanidine] and `N=C(N)NC(=O)c1ccc(C2CCN(C(=O)c3ccccc3)CC2)c(C(F)(F)F)c1` [N-[4-(1-Benzoyl-piperidin-4-yl)-3-trifluoromethyl-benzoyl]-guanidine] are within 0.2 log units of each other in pIC50: 7.19 for the first, 7.35 for the second.

Going from `N=C(N)NC(=O)c1ccc(C2CCN(C(=O)c3cncc(-c4ccccc4)c3)CC2)c(C(F)(F)F)c1` [N-{4-[1-(5-Phenyl-pyridine-3-carbonyl)-piperidin-4-yl]-3-trifluoromethyl-benzoyl}-guanidine] to `N=C(N)NC(=O)c1ccc(C2CCN(C(=O)c3ccc(O)nc3)CC2)c(C(F)(F)F)c1` [N-{4-[1-(6-Hydroxy-pyridine-3-carbonyl)-piperidin-4-yl]-3-trifluoromethyl-benzoyl}-guanidine], the pIC50 rises from 6.69 to 7.68 (0.99 log units). The second is the more potent here.

Going from `N=C(N)NC(=O)c1ccc(C2CCN(C(=O)C(N)Cc3ccccc3)CC2)c(C(F)(F)F)c1` (stereo not shown) [N-{4-[1-(2-Amino-3-phenyl-propionyl)-piperidin-4-yl]-3-trifluoromethyl-benzoyl}-guanidine] to `N=C(N)NC(=O)c1ccc(C2CCN(C(=O)[C@@H](N)CC(=O)O)CC2)c(C(F)(F)F)c1` [(S)-3-Amino-4-[4-(4-guanidinocarbonyl-2-trifluoromethyl-phenyl)-piperidin-1-yl]-4-oxo-butyric acid], the pIC50 rises from 7.72 to 8.05 (0.33 log units).

First: Cc1cc(C2CCN(C(=O)c3ccc(S(C)(=O)=O)cc3)CC2)c(C(F)(F)F)cc1C(=O)NC(=N)N [N-{4-[1-(4-Methanesulfonyl-benzoyl)-piperidin-4-yl]-2-methyl-5-trifluoromethyl-benzoyl}-guanidine]
Second: CS(=O)(=O)c1ccc(C(=O)N2CCC(c3ccc(C(=O)NC(=N)N)cc3C(F)(F)F)CC2)c(Cl)c1 [N-{4-[1-(2-Chloro-4-methanesulfonyl-benzoyl)-piperidin-4-yl]-3-trifluoromethyl-benzoyl}-guanidine]
The pIC50 of the first is 0.48 log units higher: 7.70 for the first, 7.22 for the second. The first is the more potent here.

`CN1CCCC(C(=O)N2CCC(c3ccc(C(=O)NC(=N)N)cc3C(F)(F)F)CC2)C1` (stereo not shown) [N-{4-[1-(1-Methyl-piperidine-3-carbonyl)-piperidin-4-yl]-3-trifluoromethyl-benzoyl}-guanidine] and `CCC(=O)N1CCC(c2ccc(C(=O)NC(=N)N)cc2C(F)(F)F)CC1` [N-[4-(1-Propionyl-piperidin-4-yl)-3-trifluoromethyl-benzoyl]-guanidine] are within 0.2 log units of each other in pIC50: 8.00 for the first, 7.92 for the second.

First: N=C(N)NC(=O)c1ccc(C2CCN(C(=O)c3ccc(F)cc3)C2)c(C(F)(F)F)c1 (stereo not shown) [N-{4-[1-(4-Fluoro-benzoyl)-pyrrolidin-3-yl]-3-trifluoromethyl-benzoyl}-guanidine]
Second: N=C(N)NC(=O)c1ccc([C@@H]2CCN(C(=O)c3ccc(F)cc3)C2)c(C(F)(F)F)c1 [(S)-N-{4-[-1-(4-fluoro-benzoyl)-pyrrolidin-3-yl]-3-trifluoromethyl-benzoyl}-guanidine]
The pIC50 of the first is 0.34 log units lower: 7.40 for the first, 7.74 for the second.

`CS(=O)(=O)c1cc(C(=O)NC(=N)N)ccc1C1CCN(C(=O)c2cccc(C#N)c2)CC1` [N-{4-[1-(3-cyano-benzoyl)-piperidin-4-yl]-3-methanesulfonyl-benzoyl}-guanidine] and `N=C(N)NC(=O)c1ccc(C2CCN(C(=O)c3ccc(C(N)=O)cc3)CC2)c(C(F)(F)F)c1` [4-[4-(4-Guanidinocarbonyl-2-trifluoromethyl-phenyl)-piperidine-1-carbonyl]-benzamide] are within 0.2 log units of each other in pIC50: 7.47 for the first, 7.55 for the second.

First: CC(C)CC(=O)N1CCC(c2ccc(C(=O)NC(=N)N)cc2C(F)(F)F)CC1 [N-{4-[1-(3-Methyl-butyryl)-piperidin-4-yl]-3-trifluoromethyl-benzoyl}-guanidine]
Second: C[S+]([O-])CC[C@H](N)C(=O)N1CCC(c2ccc(C(=O)NC(=N)N)cc2C(F)(F)F)CC1 (stereo partly drawn) [(S)-N-{4-[1-(-2-Amino-4-methanesulfinyl-butyryl)-piperidin-4-yl]-3-trifluoromethyl-benzoyl}-guanidine]
The pIC50 of the first is 0.61 log units lower: 7.31 for the first, 7.92 for the second. The second is the more potent here.

`COc1cc(C2CCN(C(=O)[C@H](OC(C)=O)c3ccccc3)CC2)c(C(F)(F)F)cc1C(=O)NC(=N)N` [(R)-Acetic acid 2-[4-(4-guanidinocarbonyl-5-methoxy-2-trifluoromethyl-phenyl)-piperidin-1-yl]-2-oxo-1-phenyl-ethyl ester] and `N=C(N)NC(=O)c1ccc(C2CCN(C(=O)c3ccccc3F)CC2)c(C(F)(F)F)c1` [N-{4-[1-(2-Fluoro-benzoyl)-piperidin-4-yl]-3-trifluoromethyl-benzoyl}-guanidine] are within 0.2 log units of each other in pIC50: 6.96 for the first, 6.90 for the second.

Compared with `N=C(N)NC(=O)c1ccc(C2CCN(C(=O)c3ccc(F)cc3C(F)(F)F)CC2)c(C(F)(F)F)c1` [N-{4-[1-(4-Fluoro-2-trifluoromethyl-benzoyl)-piperidin-4-yl]-3-trifluoromethyl-benzoyl}-guanidine], `N=C(N)NC(=O)c1ccc(C2CCN(C(=O)c3ccc4c(c3)CCO4)CC2)c(C(F)(F)F)c1` [N-{4-[1-(2,3-Dihydro-benzofuran-5-carbonyl)-piperidin-4-yl]-3-trifluoromethyl-benzoyl}-guanidine] is 1.18 log units higher in pIC50: 6.46 for the first, 7.64 for the second.

Work on `N=C(N)NC(=O)c1ccc(C2CCN(C(=O)C3COCCN3)CC2)c(C(F)(F)F)c1` (stereo not shown) [N-{4-[1-(Morpholine-3-carbonyl)-piperidin-4-yl]-3-trifluoromethyl-benzoyl}-guanidine] yielded a pIC50 of 7.46.
